The values that follow come from patent US8067590B2, “Pyridone derivates with MCH antagonistic activity and medicaments comprising these compounds” (Boehringer Ingelheim International GmbH, priority 2006, dated 2011).

Usually IC50 stands for the concentration that inhibits the measured activity by half. High values mean a need for much substance, low ones inhibition by little substance.

T1 sequence (Q99705 whole entry): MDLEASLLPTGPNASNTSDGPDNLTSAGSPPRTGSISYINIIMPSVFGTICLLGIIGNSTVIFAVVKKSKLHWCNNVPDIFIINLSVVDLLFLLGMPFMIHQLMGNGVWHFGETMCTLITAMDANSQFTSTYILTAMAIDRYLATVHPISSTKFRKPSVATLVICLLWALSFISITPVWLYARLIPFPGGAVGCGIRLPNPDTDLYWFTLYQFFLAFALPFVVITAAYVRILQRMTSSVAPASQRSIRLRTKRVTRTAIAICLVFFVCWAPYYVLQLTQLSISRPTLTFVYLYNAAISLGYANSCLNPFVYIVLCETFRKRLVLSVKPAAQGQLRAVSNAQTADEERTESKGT
T2 sequence (P97639 whole entry): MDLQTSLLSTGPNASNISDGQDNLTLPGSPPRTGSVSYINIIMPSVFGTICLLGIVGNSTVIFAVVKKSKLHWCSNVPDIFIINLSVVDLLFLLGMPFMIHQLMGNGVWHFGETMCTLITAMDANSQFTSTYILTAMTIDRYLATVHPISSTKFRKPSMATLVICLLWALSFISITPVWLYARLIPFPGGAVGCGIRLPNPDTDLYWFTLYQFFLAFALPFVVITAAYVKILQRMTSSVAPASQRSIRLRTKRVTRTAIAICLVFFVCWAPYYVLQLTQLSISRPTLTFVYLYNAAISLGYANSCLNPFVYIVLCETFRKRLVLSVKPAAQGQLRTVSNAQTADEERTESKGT

The first assay addresses T1, hMCH-1R (Homo sapiens, UniProt Q99705).
T1 construct: expressed in transfected cells; host or cells: CHO/Galpha16 cells (membranes)
Nature of the assay: MCH-1 receptor binding test (125I-MCH binding to membranes of hMCH-1R transfected CHO/Galpha16 cells).
Conditions: not given
Here is the method:
Membranes from CHO/Galpha16 cells stably transfected with human hMCH-1R are resuspended using a syringe (needle 0.6×25 mm) and diluted in test buffer (50 mM HEPES, 10 mM MgCl2, 2 mM EGTA, pH 7.00; 0.1% bovine serum albumin (protease-free), 0.021% bacitracin, 1 μg/ml aprotinin, 1 μg/ml leupeptin and 1 μM phosphoramidone) to a concentration of 5 to 15 μg/ml.
After the incubation the reaction is filtered using a cell harvester through 0.5% PEI treated fibreglass filters (GF/B, Unifilter Packard). The membranebound radioactivity retained on the filter is then determined after the addition of scintillator substance (Packard Microscint 20) in a measuring device (TopCount of Packard). The non-specific binding is defined as bound radioactivity in the presence of 1 micromolar MCH during the incubation period.
The analysis of the concentration binding curve is carried out on the assumption of one receptor binding site.
As to `CC(=O)NC1CCN(Cc2ccc(CCn3ccc(OCc4ccsc4)cc3=O)cc2)CC1` [Example 4.2, N-[1-(4-{2-[2-Oxo-4-(thiophen-3-ylmethoxy)-2H-pyridin-1-yl]-ethyl}-benzyl)-piperidin-4-yl]-acetamide], the IC50 stood at 8 nM.
On the same count and under the same terms, to `O=c1cc(OCc2ccco2)ccn1CCc1ccc(CN2CCCC2)cc1` [Example 6.1, 4-(Furan-2-ylmethoxy)-1-[2-(4-pyrrolidin-1-ylmethyl-phenyl)-ethyl]-1H-pyridin-2-one] belongs 13 nM.
On the same count and under the same terms, to `O=c1cc(OCc2ccccc2)cnn1CCc1ccc(CN2CCCC2)cc1` [Example 21.2] belongs 3 nM; to `O=C(Cn1ccc(OCc2ccccc2)cc1=O)c1ccc2c(c1)CCN(C(=O)C(F)(F)F)CC2` [Example 22.1, 4-Benzyloxy-1-{2-oxo-2-[3-(2,2,2-trifluoro-acetyl)-2,3,4,5-tetrahydro-1H-3-benzazepin-7-yl]-ethyl}-1H-pyridin-2-one], 51 nM.
Take `O=c1cc(OCc2ccccc2)ccn1CCc1ccc2c(c1)CCNCC2` [Example 23.2, 4-Benzyloxy-1-[2-(2,3,4,5-tetrahydro-1H-3-benzazepin-7-yl)-ethyl]-1H-pyridin-2-one]: the IC50 is 7 nM.
On the same count and under the same terms, to `O=c1cc(OCc2ccccc2)ccn1CCc1ccc2c(c1)CCNC2` [Example 27.2, 4-Benzyloxy-1-[2-(1,2,3,4-tetrahydro-isoquinolin-6-yl)-ethyl]-1H-pyridin-2-one] belongs 8 nM; to `O=c1cc(OCc2ccccc2)ccn1CCc1ccc(CN2CCCC2)s1` [Example 28.1, 4-Benzyloxy-1-[2-(5-pyrrolidin-1-ylmethyl-thiophen-2-yl)-ethyl]-1H-pyridin-2-one], 26 nM.
`O=C(Cn1ccc(OCc2ccccc2)cc1=O)c1ccc(CN2CCC(O)CC2)cc1` [Example 29.3, 4-Benzyloxy-1-{2-[4-(4-hydroxy-piperidin-1-ylmethyl)-phenyl]-2-oxo-ethyl}-1H-pyridin-2-one] returned an IC50 of 16 nM.
Take `CC1(O)CCN(Cc2ccc(C(=O)Cn3ccc(OCc4ccccc4)cc3=O)cc2)CC1` [Example 29.4]: the IC50 came to 16 nM.
Same read-out and setting: as for `O=C(Cn1ccc(OCc2ccccc2)cc1=O)c1ccc(CN2CC[C@@H](O)C2)cc1` [Example 29.11], the figure is 14 nM; as for `O=C(Cn1ccc(OCc2ccccc2)cc1=O)c1ccc(CN2CC(O)C2)cc1` [Example 29.13], 18 nM.
In turn, `O=C(Cn1ncc(OCc2ccccc2)cc1=O)c1ccc(CN2CCC(O)CC2)cc1` [Example 32.2] gave an IC50 of 12 nM.
On the same count and under the same terms, to `CC1(O)CCN(Cc2ccc(C(=O)Cn3ncc(OCc4ccccc4)cc3=O)cc2)CC1` [Example 32.3] belongs 9 nM; to `O=C(Cn1ncc(OCc2ccccc2)cc1=O)c1ccc(CNCC2CC2)cc1` [Example 32.8], 6 nM; to `CN1CCN(Cc2ccc(C(=O)Cn3ncc(OCc4ccccc4)cc3=O)cc2)CC1` [Example 32.10], 23 nM.
On to `O=C(Cn1ncc(OCc2ccc(Cl)cn2)cc1=O)c1ccc(CN2CCCC2)cc1` [Example 33.8], for which the IC50 stood at 19 nM.
Same read-out and setting: to `O=C(Cn1cnc(OCc2ccccc2)cc1=O)c1ccc(CN2CCCCC2)cc1` [Example 34.3] belongs 16 nM; to `CN1Cc2ccc(C(=O)Cn3ccc(OCc4ccccc4)cc3=O)cc2C1` [Example 37.2, 4-Benzyloxy-1-[2-(2-methyl-2,3-dihydro-1H-isoindol-5-yl)-2-oxo-ethyl]-1H-pyridin-2-one], 33 nM.
The same measure, in the same setting: to `O=c1cc(OCc2ccc(Br)cn2)ccn1CC(O)c1ccc2c(c1)CNCC2` (centres unmarked) [Example 39.1, 4-(5-Bromo-pyridin-2-ylmethoxy)-1-[2-hydroxy-2-(1,2,3,4-tetrahydro-isoquinolin-7-yl)-ethyl]-1H-pyridin-2-one] belongs 34 nM; to `O=C(Cn1ncc(OCc2ccccc2)cc1=O)c1ccc2c(c1)CNCC2` [Example 41.1, 5-Benzyloxy-2-[2-oxo-2-(1,2,3,4-tetrahydro-isoquinolin-7-yl)-ethyl]-2H-pyridazin-3-one], 17 nM.
Regarding `CN1CCc2ccc(C(=O)Cn3ncc(OCc4ccccc4)cc3=O)cc2C1` [Example 42.1, 5-Benzyloxy-2-[2-(2-methyl-1,2,3,4-tetrahydro-isoquinolin-7-yl)-2-oxo-ethyl]-2H-pyridazin-3-one], the half-maximal inhibitory concentration (IC50) is 14 nM.
Still for that read-out and setting: to `CN1CCc2sc(C(=O)Cn3ncc(OCc4ccccc4)cc3=O)cc2C1` [Example 44.2, 5-Benzyloxy-2-[2-(5-methyl-4,5,6,7-tetrahydro-thieno[3,2-c]pyridin-2-yl)-2-oxo-ethyl]-2H-pyridazin-3-one] belongs 20 nM.
Turning to `CN1CCc2cc(C(=O)Cn3ccc(OCc4ccccc4)cc3=O)ccc2C1` [Example 46.2, 4-Benzyloxy-1-[2-(2-methyl-1,2,3,4-tetrahydro-isoquinolin-6-yl)-2-oxo-ethyl]-1H-pyridin-2-one], the IC50 was 21 nM.
In turn, `CC(c1ccc(C(=O)Cn2ncc(OCc3ccccc3)cc2=O)cc1)N1CCN(C)CC1` (centres unmarked) [Example 47.5] yielded an IC50 of 27 nM. This IC50 and that of the molecule before are within 1.5-fold of each other.

The next assay concerns the target T2, MCH-1R (Rattus norvegicus, UniProt P97639).
Test: not given
As to conditions: rats; cited from earlier work. Details: host or cells: rats (in vivo).
Turning to `COCC1=C(C(=O)OC)[C@H](c2ccc(F)c(F)c2)N(C(=O)NCCCN2CCC(c3cccc(NC(C)=O)c3)CC2)C(=O)N1` [SNAP-7941], the “effects in behavioural experiments” value was “anxiolytic and antidepressant effects”.

The target in another assay is T2, MCH-1R.
Test: not given
Set-up: host or cells: whole animals (in vivo). The following applies: animals treated with the antagonist; cited from earlier work.
For `COCC1=C(C(=O)OC)[C@H](c2ccc(F)c(F)c2)N(C(=O)NCCCN2CCC(c3cccc(NC(C)=O)c3)CC2)C(=O)N1` [SNAP-7941], the “body weight effect in long term trials” value is “lose significant amounts of weight”.
